Source: PubChem BioAssay AID248 (DTP/NCI, 2004)
Toxic doses and inconclusive results are not listed. Cut-off read from the data, not from the text of the source: active = T/C of 150% or more; inactive = T/C below 125%.

Tested on: L1210 leukemia ip in BDF1 mice, survival T/C
Experiment: NCI In Vivo Anticancer Drug Screen. Data for tumor model L1210 Leukemia (intraperitoneal) in B6D2F1 (BDF1) mice
Settings: endpoint: mean survival time, higher = longer survival
Procedure, shortened: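 Ratio derived from survival: compound-dosed mice over vehicle-dosed mice, all bearing a transplantable tumor.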

[1] = dose: 100.0 mg/kg/injection, schedule: Q01DX009 (ip), vehicle: saline with Tween-80
[2] = dose: 75.0 mg/kg/injection, schedule: Q01DX001 (ip), vehicle: saline

Measured: T/C

NC(=O)NC12CC3CC(CC(C3)C1)C2
inactive: dose: 100.0 mg/kg/injection, schedule: Q01DX001 (ip), vehicle: saline 89 % of control | dose: 200.0 mg/kg/injection, schedule: Q01DX001 (ip), vehicle: saline 89 % of control | dose: 400.0 mg/kg/injection, schedule: Q01DX001 (ip), vehicle: saline 101 % of control

CCOC(=O)/C=C1\CC2c3cc(OC)c(OC)cc3CCN2CC1CC (centres undefined)
inactive: dose: 50.0 mg/kg/injection, schedule: Q01DX009 (ip), vehicle: Klucel (hydroxypropylcellulose) (HPC) 93 % of control | dose: 100.0 mg/kg/injection, schedule: Q01DX009 (ip), vehicle: Klucel (hydroxypropylcellulose) (HPC) 96 % of control | dose: 200.0 mg/kg/injection, schedule: Q01DX009 (ip), vehicle: Klucel (hydroxypropylcellulose) (HPC) 96 % of control

NC(=O)C1(Cl)CC2C=CC1C2 (centres undefined)
inactive: dose: 25.0 mg/kg/injection, schedule: Q01DX009 (ip), vehicle: saline with Tween-80 90 % of control | dose: 25.0 mg/kg/injection, schedule: Q04DX003 (ip), vehicle: saline 100 % of control | dose: 50.0 mg/kg/injection, schedule: Q01DX009 (ip), vehicle: saline with Tween-80 95 % of control | dose: 50.0 mg/kg/injection, schedule: Q04DX003 (ip), vehicle: saline 99 % of control | [1] 97 % of control | dose: 100.0 mg/kg/injection, schedule: Q04DX003 (ip), vehicle: saline 110 % of control

CC(C)NC(=O)CN=NNc1nc[nH]c1C(N)=O
inactive: dose: 25.0 mg/kg/injection, schedule: Q01DX001 (ip), vehicle: Klucel (hydroxypropylcellulose) (HPC) 95 % of control | dose: 25.0 mg/kg/injection, schedule: Q04DX003 (ip), vehicle: Klucel (hydroxypropylcellulose) (HPC) 99 % of control | dose: 50.0 mg/kg/injection, schedule: Q01DX001 (ip), vehicle: Klucel (hydroxypropylcellulose) (HPC) 100 % of control | dose: 50.0 mg/kg/injection, schedule: Q04DX003 (ip), vehicle: Klucel (hydroxypropylcellulose) (HPC) 94 % of control | dose: 100.0 mg/kg/injection, schedule: Q01DX001 (ip), vehicle: Klucel (hydroxypropylcellulose) (HPC) 97 % of control | dose: 100.0 mg/kg/injection, schedule: Q04DX003 (ip), vehicle: Klucel (hydroxypropylcellulose) (HPC) 101 % of control

CN/C([S-])=N/N=C/C(=N/N=C(\[S-])NC)c1ccccc1.[Zn+2]
inactive: dose: 6.25 mg/kg/injection, schedule: Q04DX002 (ip), vehicle: Klucel (hydroxypropylcellulose) (HPC) 101 % of control | dose: 12.5 mg/kg/injection, schedule: Q04DX002 (ip), vehicle: Klucel (hydroxypropylcellulose) (HPC) 97 % of control

NCC(=O)NCCCC(=O)O
inactive: dose: 18.75 mg/kg/injection, schedule: Q01DX001 (ip), vehicle: saline 90 % of control | dose: 37.5 mg/kg/injection, schedule: Q01DX001 (ip), vehicle: saline 101 % of control | [2] 104 % of control

COC(=O)c1ccc[n+](Cc2c(Cl)cccc2Cl)c1
inactive: [2] 95 % of control | dose: 150.0 mg/kg/injection, schedule: Q01DX001 (ip), vehicle: saline 96 % of control

O=C(O)c1cc(Cl)ccc1-c1ccc(Cl)cc1C(=O)Nc1ccc2c(c1)Cc1ccccc1-2
inactive: dose: 75.0 mg/kg/injection, schedule: Q01DX001 (ip), vehicle: carboxymethylcellulose (CMC) 102 % of control | dose: 150.0 mg/kg/injection, schedule: Q01DX001 (ip), vehicle: carboxymethylcellulose (CMC) 113 % of control | dose: 300.0 mg/kg/injection, schedule: Q01DX001 (ip), vehicle: carboxymethylcellulose (CMC) 104 % of control

CC(C)(C)Cc1cc(O)c2c(c1O)C(=O)c1ccccc1C2=O
inactive: [1] 98 % of control | dose: 100.0 mg/kg/injection, schedule: Q04DX003 (ip), vehicle: saline with Tween-80 97 % of control | dose: 200.0 mg/kg/injection, schedule: Q01DX009 (ip), vehicle: saline with Tween-80 98 % of control | dose: 200.0 mg/kg/injection, schedule: Q04DX003 (ip), vehicle: saline with Tween-80 97 % of control | dose: 400.0 mg/kg/injection, schedule: Q01DX009 (ip), vehicle: saline with Tween-80 96 % of control | dose: 400.0 mg/kg/injection, schedule: Q04DX003 (ip), vehicle: saline with Tween-80 92 % of control
